Results: ChEMBL document CHEMBL3763120, “Phenyl Benzenesulfonylhydrazides Exhibit Selective Indoleamine 2,3-Dioxygenase Inhibition with Potent in Vivo Pharmacodynamic Activity and Antitumor Efficacy” (J Med Chem, 2016)

Molecular target: Alpha-1D adrenergic receptor (Homo sapiens) (UniProt P25100)
Test: Inhibition of Adrenergic alpha1D receptor (unknown origin) at 10 uM

Sequence of Alpha-1D adrenergic receptor (Homo sapiens) (P25100 whole entry): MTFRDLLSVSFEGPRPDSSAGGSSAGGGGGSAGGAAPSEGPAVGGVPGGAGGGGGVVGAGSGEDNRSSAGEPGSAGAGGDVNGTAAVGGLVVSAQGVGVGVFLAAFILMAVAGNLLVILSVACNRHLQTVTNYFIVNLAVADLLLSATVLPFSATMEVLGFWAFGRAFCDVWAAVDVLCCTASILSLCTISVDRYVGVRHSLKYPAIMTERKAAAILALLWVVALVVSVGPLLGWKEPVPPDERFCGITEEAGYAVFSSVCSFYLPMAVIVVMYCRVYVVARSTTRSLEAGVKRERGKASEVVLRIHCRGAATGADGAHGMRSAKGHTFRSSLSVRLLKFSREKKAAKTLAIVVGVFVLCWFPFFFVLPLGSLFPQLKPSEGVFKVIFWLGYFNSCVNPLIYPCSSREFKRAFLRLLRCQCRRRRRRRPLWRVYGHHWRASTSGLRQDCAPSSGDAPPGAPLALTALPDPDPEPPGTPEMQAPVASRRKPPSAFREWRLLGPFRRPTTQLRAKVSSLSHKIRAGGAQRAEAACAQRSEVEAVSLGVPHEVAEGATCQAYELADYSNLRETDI

SMILES: O=C1Cc2cc(S(=O)(=O)NNc3ccc(Br)cc3)ccc2N1
- inhibition: < 50%
